Results taken from patent US12077555B2, “STAT degraders and uses thereof” (Kymera Therapeutics, Inc., priority 2019, dated 2024).

Tests used:
Assay type in all cases: cell-based
[1] = tested on: STAT3-mediated gene expression (SOCS3, PD-L1); test: RT-qPCR of STAT3, SOCS3 and PDL-1 mRNA levels in SU-DHL-1 cells; conditions: FIG. 15
Protocol: FIG. 5. Includes graphical images and tables showing the results of RT-qPCR in SU-DHL-1 cells at 24 hours (A) with mRNA levels (% control) over I-103 concentration (nM)(x-axis) for STAT3, SOCS3, and PDL-1 genes and CellTiterGlo (CTG) cell viability at 4 days (B) with growth inhibition (% control) over I-103 concentration (nM)(x-axis) for MOLM-16 and SU-DHL-1 cell lines. Also shown are the results of MSD degradation DC50 (nM) in MOLM-16 and SU-DHL-1 cell lines at 24 hours.

STAT3 [2] = target: T1, STAT3 (Homo sapiens, UniProt P40763); test: STAT3 HiBiT degradation assay in transfected A549 cells; set-up: expressed in transfected cells; host or cells: A549; conditions: A549, 24 h; read-out: STAT3 HiBiT A549 degradation 24 h: Average external-Abs DC50
Procedure, shortened: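 Transfected A549 cells (~2000/well) plated 24 h, then treated 24 h at 37 °C, 5% CO2 with a 3-fold, 10-point compound dilution. HiBiT lytic luminescence read after 10 min at room temperature; remaining STAT3 normalized to negative and positive controls, four-parameter fit. DC50 binned A <0.01, B 0.01–0.1, C 0.1–1.0, D >1.0 µM.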

ALK+ALCL cell lines = test: growth inhibition in multiple ALK+ALCL cell lines; conditions: dose response curves, FIG. 16
SU-DHL-1 = test: STAT3 decrease needed for SU-DHL-1 apoptosis and cell growth inhibition (FIG. 8, 17)
From the text: FIG. 8 depicts that a decrease of STAT3 by 90% using I-103 is necessary to induce SU-DHL-1 apoptosis and inhibit cell growth.
FIG. 17 depicts that a decrease of STAT3 by 90% using I-174 and I-94 is necessary to induce SU-DHL-1 apoptosis and inhibit cell growth.

SU-DHL-1 cells [3] = test: CellTiter-Glo cell viability, SU-DHL-1
Protocol: Compound-mediated viability effect on MOLM-16 and SU-HDL-1 cells was quantitatively determined using the CellTiter-Glo® Luminescent Cell Viability Assay kit from Promega (Catalog number G7572) following manufacturer's recommended procedures.
Day 0: 60 nL of compounds/DMSO were stamped to the cell plate as on the recommended platemap. Compound precipitation was observed. Cells were centrifuged at 800 rpm for 5 min, suspended with culture medium, and counted with Countess (Invitrogen). The cell density was adjusted to the recommend concentration. 30 μL of cell solution (2000 cells/well) was added to the assay plate according to the platemap. 30 μL of media was added to column 2 and column 23 as on the platemap. The final concentration of the compounds except for the reference compound Paclitaxel was from 10 μM, 3-fold dilution and 11 dose (Paclitaxel started at 500 nM). The final DMSO concentration was 0.2%. The assay plate was incubated at 37° C., 5% CO2 for 4 days.
Day 4: The assay plate was equilibrated to RT for ˜10 minutes. Compound precipitation was observed (96h). To determine cell viability, 30 μL of CellTiter Glo reagent was added to each well and the assay plate was centrifuged at 1000 rpm for 30 second, incubated at room temperature for 10 min, and analyzed by detecting the luminescence using a multimode plate reader (EnVision 2105, PerkinElmer). The data was then analyzed by software Prism 7.0 from GraphPad and the dose response curves were fit using a three-parameter logistic equation to calculate EC50.

SU-DHL-1 cells [4] = test: Caspase 3/7-Glo activity assay; conditions: SU-DHL-1, FIG. 17
Protocol: Determination of apoptosis was determined using a Caspase 3/7-Glo assay.
• 1—Prepare the Caspase-Glo® 3/7 Reagent (Promega cat #G8090) • Equilibrate the Caspase-Glo® 3/7 Buffer and lyophilized Caspase-Glo® 3/7 Substrate to room temperature before use. • Transfer the contents of the Caspase-Glo® 3/7 Buffer bottle into the amber bottle containing Caspase-Glo® 3/7 Substrate. • Mix by swirling or inverting the contents until the substrate is thoroughly dissolved to form the Caspase-Glo® 3/7 Reagent • Aliquot and store at −20 • 2—If thawing the reagent, allow it to equilibrate to room temperature. Mix well. • 3—Remove white-walled 384-well plate containing treated cells from the incubator and allow plates to equilibrate to room temperature. • 4—Add Caspase-Glo® 3/7 Reagent to each well of the plate at 1:1 ratio with media. Because of the sensitivity of this assay, be careful not to touch pipet tips to the wells containing samples to avoid cross-contamination. Cover the plate with a plate sealer or lid. • 5—Gently mix contents of wells using a plate shaker at 300-500 rpm for 30 seconds. Incubate at room temperature for 30-60 minutes. Note: Temperature fluctuations will affect the luminescence reading. • 6—Measure the luminescence of each sample in a plate-reading luminometer as directed by the luminometer manufacturer.

STAT3 [5] = target: T1, STAT3; test: STAT3 degradation (DC50) in multiple ALK+ALCL cell lines; conditions: dose response curves, FIG. 14

T1 sequence (P40763 whole entry): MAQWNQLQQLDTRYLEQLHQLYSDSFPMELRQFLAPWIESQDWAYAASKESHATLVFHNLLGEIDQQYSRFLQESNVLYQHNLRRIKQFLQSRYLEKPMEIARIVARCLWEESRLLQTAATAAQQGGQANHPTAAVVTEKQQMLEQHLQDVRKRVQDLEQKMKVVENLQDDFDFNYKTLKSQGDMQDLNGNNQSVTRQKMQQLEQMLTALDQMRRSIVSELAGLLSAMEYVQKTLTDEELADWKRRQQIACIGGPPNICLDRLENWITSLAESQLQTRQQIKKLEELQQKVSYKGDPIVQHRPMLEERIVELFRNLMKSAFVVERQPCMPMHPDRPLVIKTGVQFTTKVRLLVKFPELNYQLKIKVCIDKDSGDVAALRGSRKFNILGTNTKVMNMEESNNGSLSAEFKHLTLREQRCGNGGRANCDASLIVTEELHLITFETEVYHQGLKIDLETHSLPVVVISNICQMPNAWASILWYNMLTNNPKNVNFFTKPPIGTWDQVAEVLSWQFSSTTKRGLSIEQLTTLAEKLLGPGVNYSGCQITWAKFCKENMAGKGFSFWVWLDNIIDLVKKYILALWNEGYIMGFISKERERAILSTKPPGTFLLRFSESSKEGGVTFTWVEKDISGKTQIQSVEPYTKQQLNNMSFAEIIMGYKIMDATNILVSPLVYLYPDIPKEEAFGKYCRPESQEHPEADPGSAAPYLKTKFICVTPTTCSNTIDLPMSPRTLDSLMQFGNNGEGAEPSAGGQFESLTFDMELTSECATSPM

Cn1c(=O)n(C2CCC(=O)NC2=O)c2ccc(C[C@H]3CC[C@@H](CC(=O)N4CC[C@H]5CC[C@@H](C(=O)N[C@@H](CCC(N)=O)C(=O)NC(c6ccccc6)c6ccccc6)N5C(=O)[C@@H](NC(=O)c5cc6cc(C(=O)P(=O)(O)O)ccc6[nH]5)C4)CC3)cc21 (stereo partly drawn) [Compound I-174, 2-[[(5S,8S,10aR)-8-[[(1S)-3-carbamoyl-1-(diphenylmethylcarbamoyl)propyl]carbamoyl]-6-oxo-3-[2-[(1s,4s)-4-[[1-(2,6-dioxopiperidin-3-yl)-3-methyl-2-oxo-1,3-benzodiazol-5-yl]methyl]cyclohexyl]acetyl]-octahydropyrrolo[1,2-a][1,5]diazocin-5-yl]carbamoyl]-1H-indole-5-carbonylphosphonic acid]
STAT3-mediated gene expression of SOCS3 and PD-L1 [1]: repression of STAT3-mediated gene expression | DC50 (STAT3 [2]): 0.01 to 0.1 µM | growth inhibition in multiple ALK+ALCL cell lines (ALK+ALCL cell lines): mediated growth inhibition | decrease of STAT3 necessary to induce SU-DHL-1 apoptosis and inhibit cell growth (SU-DHL-1): 90% | IC50 (SU-DHL-1 cells [3]; Homo sapiens, 96 h, SU-DHL-1, ALCL (ALK+), Day 4, read-out: CTG, IC50 μM, Day 4): 0.015 µM | CTG (% Max inh), Day 4 (SU-DHL-1 cells [3]; SU-DHL-1, ALCL (ALK+), Day 4): (>95) % | cell proliferation (SU-DHL-1 cells [3]; SU-DHL-1, FIG. 5B, FIG. 16): inhibit | decrease of STAT3 necessary to induce SU-DHL-1 apoptosis and inhibit cell growth (SU-DHL-1 cells [4]): 90% | degradation in multiple ALK+ALCL cell lines (STAT3 [5]): mediated degradation
